Experimental data published in patent publication US20260198493A1, “HYDRAZIDE COMPOUND AND AGRICULTURAL/HORTICULTURAL FUNGICIDE” (Nippon Soda Co., Ltd., priority 2022, published 2026).

Key:
[1] = tested on: Fusarium graminearum; test: microbe, parasite or virus in culture; type: cell-based; conditions: 96 h, read-out: growth inhibition ratio
[2] = tested on: Colletotrichum acutatum; test: Fungicidal effect test against fungi causing apple anthracnose; conditions: 96 h, read-out: growth inhibition ratio
[3] = tested on: Glomerella cingulata; test: Fungicidal effect test against fungi causing grape ripe rot disease; conditions: Colletotrichum gloeosporioides, 72 h, read-out: growth inhibition ratio
[4] = tested on: Botrytis cinerea; type: cell-based; conditions: 120 h, 25 ppm by volume, Vogel medium, 20° C., five days, dark, read-out: growth inhibition ratio
[5] = tested on: Botrytis cinerea; test: Control test of cucumber gray mold (sprayed young cucumber seedlings); type: in vivo; conditions: 96 h, four days after inoculation; for pest or weed control at 125 ppm: 125 ppm by mass spray; for pest or weed control at 25 ppm: 25 ppm by mass spray
Method: Then, the drug liquid was sprayed onto young cucumber seedlings cultivated in a nursery pot (variety “Jihai”-based, cotyledon stage), and then air-dried. […] They were left still in a moist room at 20° C. Four days after inoculation, leaves of the young cucumber seedlings were visually observed, and the control value was calculated from the lesion area ratio in accordance with the following equation. [formula]

[6] = tested on: Erysiphe graminis f.sp.tritici; test: Control test of wheat powdery mildew disease (sprayed young wheat seedlings); type: in vivo; conditions: Blumeria graminis, 144 h, 125 ppm by mass spray, six days after inoculation
[7] = tested on: Venturia inaequalis; test: Control test of apple scab disease (sprayed young apple seedlings); type: in vivo; conditions: 125 ppm by mass spray, 12 to 14 days after inoculation
Method: [formula] […] Then, the drug liquid was sprayed onto young apple seedlings cultivated in a nursery pot (variety “Orin”, three-to four-leaf stage), and then air-dried. Thereafter, conidiospores of fungi causing apple scab disease (Venturia inaequalis) were inoculated thereon (treated area). As a control, the conidiospores were inoculated in a similar manner to the above on young apple seedlings unsprayed with the drug liquid (untreated area). They were left still at 20° C. in a moist room with light and dark cycles repeated every 12 hours. 12 Days to 14 days after inoculation, leaves of young apple seedlings were visually observed, and the control value was calculated from the lesion area ratio in accordance with the equation used in the control test of cucumber gray mold.

COC(=O)N(Cc1ccc(C)cc1C)NC(=O)c1cc(C)nnc1Oc1cccc(Cl)n1 [b-215]
≥ 75%: inhibition of growth at 25 ppm [1] | inhibition of growth at 25 ppm [2] | inhibition of growth at 25 ppm [3] | inhibition of growth at 25 ppm [4]

COC(=O)N(Cc1ccc(N(C)C)cc1C)NC(=O)c1cc(C)ncc1Oc1cccc(C2CC2)c1F [b-126]
≥ 75%: inhibition of growth at 25 ppm [1] | pest or weed control at 125 ppm [5] | inhibition of growth at 25 ppm [2] | inhibition of growth at 25 ppm [3] | inhibition of growth at 25 ppm [4]

COC(=O)N(Cc1ccc(C)cc1C)NC(=O)c1c(Oc2cccc(Cl)c2F)nnc2c1CCC2 [b-175]
≥ 75%: inhibition of growth at 25 ppm [1] | inhibition of growth at 25 ppm [2] | inhibition of growth at 25 ppm [3] | inhibition of growth at 25 ppm [4]

CCc1cc(C(=O)NN(Cc2ccc(C)cc2C)C(=O)OC)c(Oc2cccc(C3CC3)c2F)nn1 [b-27]
≥ 75%: inhibition of growth at 25 ppm [1] | pest or weed control at 25 ppm [5] | pest or weed control at 125 ppm [5] | inhibition of growth at 25 ppm [2] | inhibition of growth at 25 ppm [3] | inhibition of growth at 25 ppm [4]

Cc1ccc(CNNC(=O)c2cc(C)nnc2Oc2cccc(C3CC3)c2F)c(C)c1 [b-1]
≥ 75%: inhibition of growth at 25 ppm [1] | inhibition of growth at 25 ppm [2] | inhibition of growth at 25 ppm [3] | inhibition of growth at 25 ppm [4]

Cc1cc(C(=O)NNCc2ccc(Cl)cc2Cl)c(Oc2cccc(C3CC3)c2F)nn1 [b-7]
≥ 75%: inhibition of growth at 25 ppm [1] | inhibition of growth at 25 ppm [2] | inhibition of growth at 25 ppm [3] | inhibition of growth at 25 ppm [4]

Cc1ccc(CNNC(=O)c2cc(C)ncc2Oc2cccc(C3CC3)c2F)c(C)c1 [b-8]
≥ 75%: inhibition of growth at 25 ppm [1] | inhibition of growth at 25 ppm [2] | inhibition of growth at 25 ppm [3] | inhibition of growth at 25 ppm [4]

COC(=O)N(Cc1ccc(C)cc1C)NC(=O)c1cc(C#N)ncc1Oc1cccc(C2CC2)c1F [b-119]
≥ 75%: inhibition of growth at 25 ppm [1] | pest or weed control at 25 ppm [5] | inhibition of growth at 25 ppm [2] | inhibition of growth at 25 ppm [3] | inhibition of growth at 25 ppm [4]

COC(=O)N(Cc1ccc(C)cc1C)NC(=O)c1cc(C2CC2)ncc1Oc1cccc(C2CC2)c1F [b-116]
≥ 75%: inhibition of growth at 25 ppm [1] | pest or weed control at 25 ppm [5] | inhibition of growth at 25 ppm [2] | inhibition of growth at 25 ppm [3] | inhibition of growth at 25 ppm [4]

COC(=O)N(Cc1ccc(C#N)cc1C)NC(=O)c1cc(C)ncc1Oc1cccc(C2CC2)c1F [b-128]
≥ 75%: inhibition of growth at 25 ppm [1] | inhibition of growth at 25 ppm [2] | inhibition of growth at 25 ppm [3] | inhibition of growth at 25 ppm [4]

CO/N=C/c1cncc(Oc2cccc(C3CC3)c2F)c1C(=O)NN(Cc1ccc(C)cc1C)C(=O)OC [b-214]
≥ 75%: inhibition of growth at 25 ppm [1] | pest or weed control at 125 ppm [5] | inhibition of growth at 25 ppm [2] | inhibition of growth at 25 ppm [3] | inhibition of growth at 25 ppm [4]

COC(=O)N(Cc1ccc(C)cc1C)NC(=O)c1cc(SC)ncc1Oc1cccc(C2CC2)c1F [b-194]
≥ 75%: inhibition of growth at 25 ppm [1] | inhibition of growth at 25 ppm [2] | inhibition of growth at 25 ppm [3] | inhibition of growth at 25 ppm [4]

COC(=O)N(Cc1ccc(C)cc1C)NC(=O)c1c(Oc2cccc(C3CC3)c2F)cnc2c1OC(C)(C)CC2 [b-209, Methyl 2-(7-(3-cyclopropyl-2-fluorophenoxy)-2,2-dimethyl-3,4-dihydro-2H-pyrano[3,2-b]pyridine-8-carbonyl)-1-(2,4-dimethylbenzyl)hydrazine-1-carboxylate]
≥ 75%: inhibition of growth at 25 ppm [1] | pest or weed control at 25 ppm [5] | pest or weed control at 125 ppm [5] | inhibition of growth at 25 ppm [2] | inhibition of growth at 25 ppm [3] | inhibition of growth at 25 ppm [4]

C=C(OCC)c1cncc(Oc2cccc(C3CC3)c2F)c1C(=O)NN(Cc1ccc(C)cc1C)C(=O)OC [b-217]
≥ 75%: inhibition of growth at 25 ppm [1] | inhibition of growth at 25 ppm [2] | inhibition of growth at 25 ppm [3] | inhibition of growth at 25 ppm [4]

Cc1ccc(CN(NC(=O)c2cc(C)nnc2Oc2cccc(C3CC3)c2F)C(=O)OCC2CC2)c(C)c1 [b-183]
≥ 75%: pest or weed control at 125 ppm [6] | pest or weed control at 25 ppm [5] | pest or weed control at 125 ppm [5] | inhibition of growth at 25 ppm [2] | inhibition of growth at 25 ppm [3] | pest or weed control at 125 ppm [7] | inhibition of growth at 25 ppm [4]

COC(=O)N(Cc1ccc(C)cc1C)NC(=O)c1ccnnc1Oc1cccc(C2CC2)c1F [b-189]
≥ 75%: pest or weed control at 125 ppm [6] | pest or weed control at 25 ppm [5] | pest or weed control at 125 ppm [5] | inhibition of growth at 25 ppm [2] | inhibition of growth at 25 ppm [3] | pest or weed control at 125 ppm [7] | inhibition of growth at 25 ppm [4]

COC(=O)N(Cc1ccc(C)cc1C)NC(=O)c1c(Cl)cncc1Oc1cccc(C2CC2)c1F [b-205]
≥ 75%: pest or weed control at 125 ppm [6] | pest or weed control at 125 ppm [5] | inhibition of growth at 25 ppm [2] | inhibition of growth at 25 ppm [3] | pest or weed control at 125 ppm [7] | inhibition of growth at 25 ppm [4]

COC(=O)N(Cc1ccc(OC)cc1C)NC(=O)c1c(F)cncc1Oc1cccc(C2CC2)c1F [b-201]
≥ 75%: pest or weed control at 125 ppm [6] | pest or weed control at 25 ppm [5] | pest or weed control at 125 ppm [5] | inhibition of growth at 25 ppm [2] | inhibition of growth at 25 ppm [3] | pest or weed control at 125 ppm [7] | inhibition of growth at 25 ppm [4]

COC(=O)N(Cc1ccc(C)cc1C)NC(=O)c1cc(C)nnc1Oc1ccccc1 [b-143]
≥ 75%: inhibition of growth at 25 ppm [1] | inhibition of growth at 25 ppm [2] | inhibition of growth at 25 ppm [3] | inhibition of growth at 25 ppm [4]

COC(=O)N(Cc1ccc(OC)cc1OC)NC(=O)c1cc(C)ncc1Oc1cccc(Br)c1 [b-87]
≥ 75%: inhibition of growth at 25 ppm [1] | inhibition of growth at 25 ppm [2] | inhibition of growth at 25 ppm [3] | inhibition of growth at 25 ppm [4]

Cc1ccc(CN(NC(=O)c2cc(C)nnc2Oc2cccc(C3CC3)c2F)C(=O)C(C)C)c(C)c1 [b-18]
≥ 75%: pest or weed control at 125 ppm [6] | pest or weed control at 125 ppm [5] | inhibition of growth at 25 ppm [2] | inhibition of growth at 25 ppm [3] | pest or weed control at 125 ppm [7] | inhibition of growth at 25 ppm [4]

COC(=O)N(Cc1ccc(OC(F)(F)F)cc1C)NC(=O)c1cc(C)nnc1Oc1cccc(C2CC2)c1F [b-158]
≥ 75%: pest or weed control at 125 ppm [6] | pest or weed control at 25 ppm [5] | pest or weed control at 125 ppm [5] | inhibition of growth at 25 ppm [2] | inhibition of growth at 25 ppm [3] | pest or weed control at 125 ppm [7] | inhibition of growth at 25 ppm [4]

COC(=O)N(Cc1ccc(C)cc1C)NC(=O)c1cc(C)nnc1Oc1cccc([N+](=O)[O-])c1 [b-135]
≥ 75%: inhibition of growth at 25 ppm [1] | pest or weed control at 25 ppm [5] | inhibition of growth at 25 ppm [2] | inhibition of growth at 25 ppm [3] | inhibition of growth at 25 ppm [4]

COC(=O)N(Cc1ccc(C)cc1C)NC(=O)c1c(Oc2cccc(Br)c2F)nnc2c1CCC2 [b-92, Methyl 2-(3-(3-bromo-2-fluorophenoxy)-6,7-dihydro-5H-cyclopenta[c]pyridazine-4-carbonyl)-1-(2,4-dimethylbenzyl)hydrazine-1-carboxylate]
≥ 75%: pest or weed control at 125 ppm [6] | pest or weed control at 25 ppm [5] | pest or weed control at 125 ppm [5] | inhibition of growth at 25 ppm [2] | inhibition of growth at 25 ppm [3] | pest or weed control at 125 ppm [7] | inhibition of growth at 25 ppm [4]

COC(=O)N(Cc1ccc(F)cc1C)NC(=O)c1cc(C)nnc1Oc1cccc(C2CC2)c1F [b-121]
≥ 75%: pest or weed control at 125 ppm [6] | pest or weed control at 25 ppm [5] | pest or weed control at 125 ppm [5] | inhibition of growth at 25 ppm [2] | inhibition of growth at 25 ppm [3] | pest or weed control at 125 ppm [7] | inhibition of growth at 25 ppm [4]

COC(=O)N(Cc1ccc(C)cc1C)/N=C(\OC)c1cc(C)nnc1Oc1cccc(Cl)c1F [b-220, Methyl (Z)-2-((3-(3-chloro-2-fluorophenoxy)-6-methylpyridazin-4-yl)(methoxy)methylene)-1-(2,4-dimethylbenzyl)hydrazine-1-carboxylate]
≥ 75%: pest or weed control at 125 ppm [6] | pest or weed control at 125 ppm [5] | inhibition of growth at 25 ppm [2] | inhibition of growth at 25 ppm [3] | pest or weed control at 125 ppm [7] | inhibition of growth at 25 ppm [4]

COC(=O)N(Cc1ccc(C)cc1)NC(=O)c1cc(C)nnc1Oc1cccc(C2CC2)c1F [b-101]
≥ 75%: pest or weed control at 125 ppm [6] | pest or weed control at 25 ppm [5] | pest or weed control at 125 ppm [5] | inhibition of growth at 25 ppm [2] | inhibition of growth at 25 ppm [3] | pest or weed control at 125 ppm [7] | inhibition of growth at 25 ppm [4]

COC(=O)N(Cc1ccc(C)cc1C)NC(=O)c1cc(C)ncc1Oc1cccc(C2CC2)c1 [b-32]
≥ 75%: inhibition of growth at 25 ppm [1] | pest or weed control at 25 ppm [5] | inhibition of growth at 25 ppm [2] | inhibition of growth at 25 ppm [3] | inhibition of growth at 25 ppm [4]

COC(=O)N(Cc1ccc(OC)cc1C)NC(=O)c1cc(C#N)ncc1Oc1cccc(C2CC2)c1F [b-167]
≥ 75%: inhibition of growth at 25 ppm [1] | inhibition of growth at 25 ppm [2] | inhibition of growth at 25 ppm [3] | inhibition of growth at 25 ppm [4]
